According to US20260356819A1, “OXOISOINDOLINYL-SUBSTITUTED […] DERIVATIVE AND USE THEREOF” (GLUETACS THERAPEUTICS (SHANGHAI) CO., LTD., priority 2023, published 2026):

What was measured:
H292 cells = test: Inhibition of proliferation of human lung cancer cells H292 (CellTiter-Meiluncell Luminescent Cell Viability Assay, 96 h); type: cell-based
Experimental: (§1) The tumor cells used herein were cultured in a cell culture medium listed in table 2 at 37 °C in an incubator with 5% CO2. Prior to experimentation, all cell lines used were correctly identified by STR profiling, and tested negative for Mycoplasma contamination using a Mycoplasma detection kit through routine screenings.
(§2) The IC50 values of the compounds of the present disclosure (including the compounds in Table 1, and Examples 1-498) were determined using the CellTiter-Meiluncell Luminescent Cell Viability Assay Kit from Dalian Meilun Biotech Co., Ltd. The detailed procedure is as follows: Tumor cells were seeded in 96-well cell culture plates at the densities specified in Table 3. On the following day, the test compounds of the present disclosure were subjected to serial dilution. […] Subsequently, 0.5 μL of the test compound dilution was transferred into the 96-well plate containing the cells, with each well containing 100 μL of cell culture medium. […]
(§3) 0.5 μL of the aforementioned diluted compound of the present disclosure (including the compounds in Table 1, and Examples 1-498) was added to the seeded cells in 100 μL of medium, yielding a final test compound concentration of 10 nM. […] The growth inhibition curves for the compounds of the present disclosure were plotted using Prism GraphPad software, and the IC50 values were calculated therefrom.

H2228 cells = test: Inhibition of proliferation of non-small cell lung cancer cells H2228 (cell viability assay, 96 h); type: cell-based, human
Experimental: as §1, §2, §3

MDA-MB-231 cells = test: Inhibition of proliferation of breast cancer cells MDA-MB-231 (cell viability assay, 96 h); type: cell-based, human
Experimental: as §1, §2, §3

MM.1S cells = test: Inhibition of proliferation of multiple myeloma cells MM.1S (cell viability assay, 96 h); type: cell-based, human; conditions: read-out: inhibitory activity (IC50) against tumor cells proliferation, MM.1S
MGC803 cells = test: Inhibition of proliferation of gastric cancer cells MGC803 (cell viability assay, 96 h); type: cell-based, human; conditions: read-out: inhibitory activity (IC50) against tumor cells proliferation, MGC803
Experimental: as §1
The IC50 values of the compounds of the present disclosure (including the compounds in Table 1, and Examples 1-498) were determined using the CellTiter-Meiluncell Luminescent Cell Viability Assay Kit from Dalian Meilun Biotech Co., Ltd. The detailed procedure is as follows: Tumor cells were seeded in 96-well cell culture plates at the densities specified in Table 3. On the following day, the test compounds of the present disclosure were subjected to serial dilution. […] Subsequently, 0.5 μL of the test compound dilution was transferred into the 96-well plate containing the cells, with each well containing 100 μL of cell culture medium. […] Into the 96-well plate, the diluted test compounds and corresponding detection reagents were added, resulting in final test compound concentrations of 500 nM and 10 nM, respectively. The experimental procedure is described below using the diluted 2 μM test compound as an example.
0.5 μL of the aforementioned diluted compound of the present disclosure (including the compounds in Table 1, and Examples 1-498) was added to the seeded cells in 100 μL of medium, yielding a final test compound concentration of 10 nM. After the cells were treated with the compounds of the present disclosure for a specified period, the cell viability assay reagent was added to the culture medium according to the kit's instructions to determine cell viability. […] All controls were treated using the same procedure as the compounds of the present disclosure. The growth inhibition curves for the compounds of the present disclosure were plotted using Prism GraphPad software, and the IC50 values were calculated therefrom.

Jurkat cells = test: Inhibition of proliferation of T lymphocytic leukemia cells Jurkat (cell viability assay, 96 h); type: cell-based, human; conditions: read-out: inhibitory activity (IC50) against tumor cells proliferation, Jurkat
WEE1 = target: T1, WEE1 (Homo sapiens, UniProt P30291+Q96SW2); test: Western blot degradation of WEE1 in hPBMCs (24 h); type: cell-based; conditions: compounds at 50 nM and 500 nM
T1 construct: The supernatant was aspirated as the extracted total cell protein; endogenous in cells; host or cells: human peripheral blood mononuclear cells (hPBMCs)
T1 sequence (P30291 whole entry): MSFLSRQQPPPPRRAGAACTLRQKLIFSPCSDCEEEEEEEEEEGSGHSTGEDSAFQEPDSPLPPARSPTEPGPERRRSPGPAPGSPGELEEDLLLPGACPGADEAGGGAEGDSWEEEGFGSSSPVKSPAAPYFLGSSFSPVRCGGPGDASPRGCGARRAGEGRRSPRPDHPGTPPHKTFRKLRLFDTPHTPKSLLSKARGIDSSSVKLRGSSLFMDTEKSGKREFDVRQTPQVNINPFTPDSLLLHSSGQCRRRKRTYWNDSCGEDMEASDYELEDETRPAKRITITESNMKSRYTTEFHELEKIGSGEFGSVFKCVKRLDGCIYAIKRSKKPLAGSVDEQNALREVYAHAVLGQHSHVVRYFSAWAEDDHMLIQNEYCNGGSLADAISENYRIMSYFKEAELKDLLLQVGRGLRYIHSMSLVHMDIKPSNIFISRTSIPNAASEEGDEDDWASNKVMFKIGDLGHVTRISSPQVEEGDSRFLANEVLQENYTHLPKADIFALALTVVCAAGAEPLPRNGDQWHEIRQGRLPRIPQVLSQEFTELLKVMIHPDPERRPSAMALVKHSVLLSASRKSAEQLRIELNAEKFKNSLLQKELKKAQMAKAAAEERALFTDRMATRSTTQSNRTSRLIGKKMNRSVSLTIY
T1 sequence (Q96SW2 whole entry): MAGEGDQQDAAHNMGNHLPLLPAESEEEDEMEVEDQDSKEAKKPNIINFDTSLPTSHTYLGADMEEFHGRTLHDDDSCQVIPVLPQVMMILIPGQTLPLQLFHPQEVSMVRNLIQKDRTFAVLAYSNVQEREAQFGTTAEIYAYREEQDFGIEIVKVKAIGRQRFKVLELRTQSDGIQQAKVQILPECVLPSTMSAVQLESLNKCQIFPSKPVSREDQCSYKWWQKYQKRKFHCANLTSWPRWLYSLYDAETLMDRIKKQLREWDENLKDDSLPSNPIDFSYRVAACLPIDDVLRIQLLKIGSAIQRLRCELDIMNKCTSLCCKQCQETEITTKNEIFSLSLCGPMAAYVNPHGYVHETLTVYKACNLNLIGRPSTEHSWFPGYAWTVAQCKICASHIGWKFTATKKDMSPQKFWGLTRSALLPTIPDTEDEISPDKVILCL
T1 sequence (Q16531 whole entry partner): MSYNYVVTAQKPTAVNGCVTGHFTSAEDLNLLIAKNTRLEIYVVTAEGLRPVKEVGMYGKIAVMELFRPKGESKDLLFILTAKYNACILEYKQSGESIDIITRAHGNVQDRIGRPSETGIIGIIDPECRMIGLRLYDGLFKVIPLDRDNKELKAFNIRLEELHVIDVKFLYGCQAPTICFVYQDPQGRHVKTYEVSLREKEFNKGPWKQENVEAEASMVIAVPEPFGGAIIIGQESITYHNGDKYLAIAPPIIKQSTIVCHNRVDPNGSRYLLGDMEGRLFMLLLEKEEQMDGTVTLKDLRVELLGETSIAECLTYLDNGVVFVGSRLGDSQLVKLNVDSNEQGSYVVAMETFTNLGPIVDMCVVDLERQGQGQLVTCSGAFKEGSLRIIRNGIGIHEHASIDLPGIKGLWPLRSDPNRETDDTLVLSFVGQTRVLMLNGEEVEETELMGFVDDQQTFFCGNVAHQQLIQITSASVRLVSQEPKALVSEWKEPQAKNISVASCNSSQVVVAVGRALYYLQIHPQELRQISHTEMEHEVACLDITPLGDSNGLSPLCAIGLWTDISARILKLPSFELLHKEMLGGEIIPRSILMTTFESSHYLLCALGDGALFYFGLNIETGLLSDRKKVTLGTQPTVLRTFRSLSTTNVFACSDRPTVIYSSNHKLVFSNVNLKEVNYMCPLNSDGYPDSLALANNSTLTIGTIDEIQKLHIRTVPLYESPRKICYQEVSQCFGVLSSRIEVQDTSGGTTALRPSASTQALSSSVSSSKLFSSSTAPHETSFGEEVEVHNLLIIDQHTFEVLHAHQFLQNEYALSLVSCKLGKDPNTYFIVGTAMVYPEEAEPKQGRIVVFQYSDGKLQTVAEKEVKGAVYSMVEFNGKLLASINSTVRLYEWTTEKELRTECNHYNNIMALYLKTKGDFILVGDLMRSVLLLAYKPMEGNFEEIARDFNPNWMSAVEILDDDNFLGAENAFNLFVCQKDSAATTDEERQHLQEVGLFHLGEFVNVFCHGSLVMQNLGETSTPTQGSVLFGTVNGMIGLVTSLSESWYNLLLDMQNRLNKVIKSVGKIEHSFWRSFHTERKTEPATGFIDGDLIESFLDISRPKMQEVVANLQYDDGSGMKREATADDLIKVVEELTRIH
Procedure, shortened: (§4)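 Immunoblot densitometry quantifies target loss in hPBMCs after a 24 h compound exposure (50 nM, 500 nM). Percent remaining is normalised band intensity; DC50 is the concentration giving half the DMSO-control band grayscale.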

IKZF1 = target: T2, IKZF1 (Homo sapiens, UniProt Q13422+Q96SW2); test: Western blot degradation of IKZF1 in hPBMCs (24 h); type: cell-based; conditions: compounds at 50 nM and 500 nM
T2 construct: The supernatant was aspirated as the extracted total cell protein; endogenous in cells; host or cells: human peripheral blood mononuclear cells (hPBMCs)
T2 sequence (Q13422 whole entry): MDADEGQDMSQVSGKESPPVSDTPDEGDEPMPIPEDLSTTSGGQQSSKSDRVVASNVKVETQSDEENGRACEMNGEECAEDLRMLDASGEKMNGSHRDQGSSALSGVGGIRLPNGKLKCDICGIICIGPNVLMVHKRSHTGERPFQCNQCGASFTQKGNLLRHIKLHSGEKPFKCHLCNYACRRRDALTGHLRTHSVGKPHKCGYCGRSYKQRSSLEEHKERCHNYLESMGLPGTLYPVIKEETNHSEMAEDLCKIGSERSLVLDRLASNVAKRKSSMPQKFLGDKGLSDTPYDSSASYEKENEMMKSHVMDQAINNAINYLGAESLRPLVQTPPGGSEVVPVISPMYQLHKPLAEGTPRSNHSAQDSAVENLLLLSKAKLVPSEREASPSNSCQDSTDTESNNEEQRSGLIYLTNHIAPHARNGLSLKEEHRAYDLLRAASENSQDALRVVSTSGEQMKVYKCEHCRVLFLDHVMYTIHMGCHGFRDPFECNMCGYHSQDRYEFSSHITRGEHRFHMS
T2 sequence (Q96SW2 whole entry): as the sequence (Q96SW2 whole entry) above
T2 sequence (Q16531 whole entry partner): as the sequence (Q16531 whole entry partner) above
Procedure, shortened: as §4

IKZF2 = target: T3, IKZF2 (Homo sapiens, UniProt Q96SW2+Q9UKS7); test: Western blot degradation of IKZF2 in hPBMCs (24 h); type: cell-based; conditions: compounds at 50 nM and 500 nM
T3 construct: The supernatant was aspirated as the extracted total cell protein; endogenous in cells; host or cells: human peripheral blood mononuclear cells (hPBMCs)
Procedure, shortened: as §4

IKZF3 = target: T4, IKZF3 (Homo sapiens, UniProt Q96SW2+Q9UKT9); test: Western blot degradation of IKZF3 in hPBMCs (24 h); type: cell-based; conditions: compounds at 50 nM and 500 nM
T4 construct: The supernatant was aspirated as the extracted total cell protein; endogenous in cells; host or cells: human peripheral blood mononuclear cells (hPBMCs)
T4 sequence (Q9UKT9 whole entry): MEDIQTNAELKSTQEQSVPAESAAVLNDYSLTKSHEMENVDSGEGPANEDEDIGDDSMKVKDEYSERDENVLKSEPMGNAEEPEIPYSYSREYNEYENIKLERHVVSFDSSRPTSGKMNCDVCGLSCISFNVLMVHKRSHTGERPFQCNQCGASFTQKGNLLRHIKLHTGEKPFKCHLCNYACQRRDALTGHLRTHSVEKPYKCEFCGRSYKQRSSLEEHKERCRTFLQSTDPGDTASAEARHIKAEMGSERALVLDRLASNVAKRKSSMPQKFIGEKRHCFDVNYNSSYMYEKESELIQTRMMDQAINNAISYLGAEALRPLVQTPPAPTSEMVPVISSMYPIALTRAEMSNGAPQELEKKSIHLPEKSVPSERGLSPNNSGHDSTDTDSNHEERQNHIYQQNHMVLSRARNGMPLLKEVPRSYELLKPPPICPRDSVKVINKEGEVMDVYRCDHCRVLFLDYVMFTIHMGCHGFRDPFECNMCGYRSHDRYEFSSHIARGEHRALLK
T4 sequence (Q96SW2 whole entry): as the sequence (Q96SW2 whole entry) above
T4 sequence (Q16531 whole entry partner): as the sequence (Q16531 whole entry partner) above
Procedure, shortened: as §4

CK1α = target: T5, CK1α (Homo sapiens, UniProt P48729+Q96SW2); test: Western blot degradation of CK1α in hPBMCs (24 h); type: cell-based; conditions: compounds at 50 nM and 500 nM
T5 construct: The supernatant was aspirated as the extracted total cell protein; endogenous in cells; host or cells: human peripheral blood mononuclear cells (hPBMCs)
T5 sequence (P48729 whole entry): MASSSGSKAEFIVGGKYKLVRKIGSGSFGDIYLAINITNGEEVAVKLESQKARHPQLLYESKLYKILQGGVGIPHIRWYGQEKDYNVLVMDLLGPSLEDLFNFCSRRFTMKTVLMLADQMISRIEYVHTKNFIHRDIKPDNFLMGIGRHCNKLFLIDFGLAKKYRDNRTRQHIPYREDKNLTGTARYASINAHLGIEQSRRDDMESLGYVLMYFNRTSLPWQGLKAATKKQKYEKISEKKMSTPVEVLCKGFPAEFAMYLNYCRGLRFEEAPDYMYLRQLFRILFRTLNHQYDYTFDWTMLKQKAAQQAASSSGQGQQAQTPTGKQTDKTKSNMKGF
T5 sequence (Q96SW2 whole entry): as the sequence (Q96SW2 whole entry) above
T5 sequence (Q16531 whole entry partner): as the sequence (Q16531 whole entry partner) above
Procedure, shortened: as §4

GSPT1 = target: T6, GSPT1 (Homo sapiens, UniProt P15170+Q96SW2); test: Western blot degradation of GSPT1 in hPBMCs (24 h); type: cell-based; conditions: compounds at 50 nM and 500 nM
T6 construct: The supernatant was aspirated as the extracted total cell protein; endogenous in cells; host or cells: human peripheral blood mononuclear cells (hPBMCs)
T6 sequence (P15170 whole entry): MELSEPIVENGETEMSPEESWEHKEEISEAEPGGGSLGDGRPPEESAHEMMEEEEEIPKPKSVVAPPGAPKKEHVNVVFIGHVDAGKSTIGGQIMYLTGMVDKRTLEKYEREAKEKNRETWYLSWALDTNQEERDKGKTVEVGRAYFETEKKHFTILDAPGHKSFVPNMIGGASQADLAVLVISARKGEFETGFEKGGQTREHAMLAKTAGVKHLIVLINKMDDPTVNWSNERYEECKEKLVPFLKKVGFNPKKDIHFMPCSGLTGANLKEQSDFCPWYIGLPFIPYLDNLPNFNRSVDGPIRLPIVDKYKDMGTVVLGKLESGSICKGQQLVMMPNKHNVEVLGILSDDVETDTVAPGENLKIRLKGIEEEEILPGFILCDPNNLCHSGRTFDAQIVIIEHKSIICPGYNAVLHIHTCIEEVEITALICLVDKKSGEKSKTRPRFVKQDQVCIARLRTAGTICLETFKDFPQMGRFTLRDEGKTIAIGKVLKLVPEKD
T6 sequence (Q96SW2 whole entry): as the sequence (Q96SW2 whole entry) above
T6 sequence (Q16531 whole entry partner): as the sequence (Q16531 whole entry partner) above
Procedure, shortened: as §4

Row | SMILES | Inhibition Rate at 10 nM (%) (H292 cells; H292, 10 nM) | Inhibition Rate at 500 nM (%) (H292 cells; H292, 500 nM) | Inhibition Rate at 10 nM (%) (H2228 cells; H2228, 10 nM) | Inhibition Rate at 500 nM (%) (H2228 cells; H2228, 500 nM) | Inhibition Rate at 10 nM (%) (MDA-MB-231 cells; MDA-MB-231, 10 nM) | Inhibition Rate at 500 nM (%) (MDA-MB-231 cells; MDA-MB-231, 500 nM) | IC50 (MM.1S cells) | IC50 (MGC803 cells) | IC50 (Jurkat cells) | WEE1 substrate protein remaining % (WEE1) | IKZF1 substrate protein remaining % (IKZF1) | IKZF2 substrate protein remaining % (IKZF2) | IKZF3 substrate protein remaining % (IKZF3) | CK1α substrate protein remaining % (CK1α) | GSPT1 substrate protein remaining % (GSPT1)
1 | Nc1cccc2c1CN(C1CCC(=O)NC1=O)C2=O (stereo not drawn) [lenalidomide, reference compound] | b1 (0 < b1 <1%) | b3 (5% ≤ b3 <10%) | d5 (20% ≤ d5 <25%) | d4 (15% ≤ d4 <20%) | f4 (15% ≤ f4 <18%) | f3 (10% ≤ f3 < 15%) | – | – | – | – | – | – | – | – | –
2 | O=C1CCN(N2Cc3cc(CN4CC=C(c5ccsc5)CC4)ccc3C2=O)C(=O)N1 [GT-04871, 1-(1-oxo-5-((4-(thiophen-3-yl)-3,6-dihydropyridin-1(2H)-yl)methyl)isoindolin-2-yl)dihydropyrimidine-2,4(1H,3H)-dione] | – | – | – | – | – | – | 100 to 300 nM | 300 to 500 nM | 300 to 500 nM | A (0% ≤ substrate protein remaining % ≤80%) | A (0% ≤ substrate protein remaining % ≤80%) | B (80%< substrate protein remaining % ≤100%) | B (80%< substrate protein remaining % ≤100%) | B (80%< substrate protein remaining % ≤100%) | A (0% ≤ substrate protein remaining % ≤80%)
3 | Cc1ccsc1C1=CCN(Cc2ccc3c(c2)CN(N2CCC(=O)NC2=O)C3=O)CC1 [GT-04870, 1-(5-((4-(3-methylthiophen-2-yl)-3,6-dihydropyridin-1(2H)-yl)methyl)-1-oxoisoindolin-2-yl)dihydropyrimidine-2,4(1H,3H)-dione] | – | – | – | – | – | – | 50 to 100 nM | 100 to 300 nM | 100 to 300 nM | A (0% ≤ substrate protein remaining % ≤80%) | A (0% ≤ substrate protein remaining % ≤80%) | A (0% ≤ substrate protein remaining % ≤80%) | A (0% ≤ substrate protein remaining % ≤80%) | B (80%< substrate protein remaining % ≤100%) | A (0% ≤ substrate protein remaining % ≤80%)
4 | Cc1cc(C2=CCN(Cc3ccc4c(c3)CN(N3CCC(=O)NC3=O)C4=O)CC2)cs1 [GT-04873, 1-(5-((4-(5-methylthiophen-3-yl)-3,6-dihydropyridin-1(2H)-yl)methyl)-1-oxoisoindolin-2-yl)dihydropyrimidine-2,4(1H,3H)-dione] | – | – | – | – | – | – | 50 to 100 nM | 100 to 300 nM | 100 to 300 nM | A (0% ≤ substrate protein remaining % ≤80%) | A (0% ≤ substrate protein remaining % ≤80%) | B (80%< substrate protein remaining % ≤100%) | A (0% ≤ substrate protein remaining % ≤80%) | B (80%< substrate protein remaining % ≤100%) | A (0% ≤ substrate protein remaining % ≤80%)
5 | O=C1CCN(N2Cc3cc(CN4CCC(Nc5ccccc5-c5ccc(Cl)cc5)CC4)ccc3C2=O)C(=O)N1 [GT-04943, 1-(5-((4-((4′-chloro-[1,1′-biphenyl]-2-yl)amino)piperidin-1-yl)methyl)-1-oxoisoindolin-2-yl)dihydropyrimidine-2,4(1H,3H)-dione] | – | – | – | – | – | – | 10 to 50 nM | 100 to 300 nM | 100 to 300 nM | A (0% ≤ substrate protein remaining % ≤80%) | A (0% ≤ substrate protein remaining % ≤80%) | A (0% ≤ substrate protein remaining % ≤80%) | A (0% ≤ substrate protein remaining % ≤80%) | B (80%< substrate protein remaining % ≤100%) | A (0% ≤ substrate protein remaining % ≤80%)
